We go through one compound from publication PMC7076525, “Pharmacokinetics and Intestinal Metabolism of Compound K in Rats and Mice” (Pharmaceutics, 2020).

SMILES strings stand for the structures. Where only a bound is given, the exact number is not on record here.

One series has as its system Caco-2 cells. Also on record: method as in PMID 16302287, PMID 32148404, PMID 30013338, PMID 26680316. The note with it: cited from earlier work.
Series [1] is described as follows: Pharmacokinetics, biliary excretion and metabolism of compound K in bile cannulated and non-bile cannulated rats. It counts as in vivo, SD rats. As to conditions: after compound K IV 2 mg/kg. How it is done:
SD rats were randomly divided into two groups: the non-bile cannulated control group and the bile cannulated group. For the bile cannulated rats, the femoral artery, femoral vein, and bile duct were cannulated with polyethylene tubes (PE-50 and PE-10; Jungdo, Seoul, Korea) under light anesthesia with isoflurane. For the control group, the femoral artery and femoral vein were cannulated with PE-50. Compound K was injected intravenously via the femoral vein at 2 mg/kg. Blood samples (approximately 200 µL) were collected from the femoral artery at 0, 0.25, 0.5, 1, 2, 4, and 8 h after the compound K injection. After each blood sampling, normal saline was injected into the femoral vein to compensate for blood loss. Bile samples were collected every 2 h for a total of 12 h. The blood samples were centrifuged at 16,000× g for 10 min, and 50 μL aliquots of plasma and 50 μL aliquots of bile were stored at −80 °C until the compound K analysis. In the non-bile cannulated rats, the complete contents of the entire gastrointestinal tract were collected using a […] filled with 30 mL pre-warmed saline. The contents were homogenized with tissue homogenizer, and 50 μL aliquots of intestinal fecal homogenates were stored at −80 °C until the analysis. The 50 μL samples of plasma, urine, 10% fecal homogenates, bile, and intestinal fecal homogenates were each mixed with 60 μL of IS (20 ng/mL 13C-caffeine in water) and 600 μL of methyl tert-butyl ether (MTBE). The mixtures were vortexed vigorously for 10 min and centrifuged at 16,000× g for 5 min. After centrifugation, the samples were frozen at −80 °C for 2 h. […] The residue was reconfigured with 200 μL of 80% methanol consisting of 0.1% formic acid, and a 10 μL aliquot was injected into the liquid chromatography–tandem mass spectrometry (LC–MS/MS) system. Compound K and PPD concentrations were analyzed using a modified LC-MS/MS method of Jin et al. with an Agilent 6430 triple quadrupole LC-MS/MS system (Agilent, Wilmington, DE, USA). […] The mobile phase consisted of 0.1% formic acid in water (8%) and 0.1% formic acid in methanol (92%) at a flow rate of 0.15 mL/min. Pharmacokinetic parameters were estimated using non-compartmental methods (WinNonlin version 2.0, Pharsight Co., Certara, NJ, USA).

The nature of series [2]: Pharmacokinetic study after intravenous compound K (2 mg/kg) in SD rats: plasma, feces, urine.
Details of series [3]: method as in PMID 28955238. As to conditions: humans, single oral 200 mg compound K tablet, cited from earlier work.
On the set-up of series [4]: method as in PMID 16302287, PMID 32148404, PMID 30013338, PMID 26680316. The note with it: cited from earlier work.
A short description of series [5]: Pharmacokinetic study after intravenous compound K (2 mg/kg) in ICR mice: plasma, feces, urine.
[6] abbreviates: rats, after compound K IV 2 mg/kg.
Where [7] appears, read: mice, after compound K IV 2 mg/kg.

What is called Cmax is the highest concentration seen after dosing. For orientation: Tmax means the time from dosing to the highest level. As to `CC(C)=CCCC(C)(O)C1CCC2(C)C1C(O)CC1C3(C)CCC(O)C(C)(C)C3CCC12C` [PPD, 20(S)-protopanaxadiol], the permeability with Caco-2 cells is 1.15 ×10⁻⁶ cm/s. In series [1] (bile-cannulated rats), the “presence in bile samples collected over 12 h” value was “without PPD”. Further, the “detection in plasma samples” value in series [1] (bile-cannulated rats, 2 mg/kg) is given as “could not be detected”. The “detection in plasma samples at 8 h” value in series [1] (control rats (non-bile cannulated), not present in 2 h sample) is “detected”. For the same compound, the “amount in intestinal fecal samples, 12 h compared to 2 h” value in series [1] (rats without bile cannulation) is listed as “greater in the 12 h samples compared to the 2 h samples”. For the same compound, the concentration at 48 h in series [2] (SD, rat, plasma, iv, 2 mg/kg) was < 5 ng/mL; in series [5] (ICR, mouse, plasma, iv, 2 mg/kg) it was < 5 ng/mL. Moreover, the “recovery of PPD relative to that of compound K in feces” value in series [2] (rat feces, after compound K IV 2 mg/kg) is 3.4 fold; in series [5] (mouse feces, after compound K IV 2 mg/kg), 1.2 fold. Further, the “metabolic ratio (PPD to compound K ratio) in plasma” value in series [2] (rat plasma, after compound K IV 2 mg/kg) was 0.2–1.6; in series [5] (mouse plasma, after compound K IV 2 mg/kg) it was 0.02–0.08. Also, the “Recovery48 h Feces” value in series [2] (rat, after compound K IV 2 mg/kg, over 48 h (Table 4)) is given as 46.6 ± 4.9 % of Dose; in series [5] (mouse, after compound K IV 2 mg/kg, over 48 h (Table 4)) it was 34.4 ± 5.8 % of Dose. In addition, the “detection in plasma and fecal samples” value in series [2] (setting [6]) and in series [5] (setting [7]) was “detected” throughout. The “detection in urine samples” value in series [2] (setting [6]) and in series [5] (setting [7]) was “not detected” each time. The Cmax in series [3] (fasting) is on record as 5.7 ng/mL. For the same compound, the Tmax in series [3] (fasting) is on record as 24.5 h. Further, in series [3], the “AUC ratio of PPD to compound K” value was 0.04. In series [4], the LogP value is 5.53.
